According to the NIST ThermoML archive (doi:10.1021/acs.jced.6b00526):

Experiment: xn = mol fraction of the nth substance listed
Details: 100 kPa, Liquid; for mass density: Vibrating tube method; for viscosity: Falling or rolling sphere viscometry

OCCCCCO [1,5-pentanediol] + O
Details | mass density, 288.15 K [kg/m3] | mass density, 293.15 K [kg/m3] | mass density, 298.15 K [kg/m3] | mass density, 303.15 K [kg/m3] | mass density, 308.15 K [kg/m3] | mass density, 313.15 K [kg/m3] | mass density, 318.15 K [kg/m3] | viscosity, 293.15 K [mPa·s] | viscosity, 298.15 K [mPa·s] | viscosity, 303.15 K [mPa·s]
x2 = 0 | 992.2 | 989.2 | 986.2 | 983.2 | 980.3 | 977.4 | 974.8 | 118.7 | 86.79 | 68.3
x2 = 0.1326 | 995.2 | 992.1 | 989 | 985.9 | 982.9 | 979.9 | 977.3 | – | – | –
x2 = 0.2201 | 997 | 993.9 | 990.8 | 987.7 | 984.7 | 981.7 | 979 | – | – | –
x2 = 0.2345 | 997.3 | 994.2 | 991 | 988 | 985 | 982 | 979.3 | – | – | –
x2 = 0.2586 | – | – | – | – | – | – | – | 92.52 | 70.36 | 54.61
x2 = 0.3 | – | – | – | – | – | – | – | 85.43 | 65.59 | 51.03
x2 = 0.3001 | 998.6 | 995.5 | 992.4 | 989.3 | 986.3 | 983.3 | 980.6 | – | – | –
x2 = 0.406 | 1000.7 | 997.6 | 994.5 | 991.4 | 988.5 | 985.5 | 982.8 | – | – | –
x2 = 0.4864 | – | – | – | – | – | – | – | 51.43 | 39.51 | 31
x2 = 0.4969 | 1002.6 | 999.5 | 996.4 | 993.4 | 990.5 | 987.6 | 985 | 49.66 | 38.56 | 30.24
x2 = 0.5262 | 1003.2 | 1000.2 | 997.1 | 994.1 | 991.2 | 988.3 | 985.7 | – | – | –
x2 = 0.5488 | 1003.7 | 1000.7 | 997.7 | 994.7 | 991.8 | 988.9 | 986.3 | – | – | –
x2 = 0.6032 | 1004.8 | 1001.9 | 998.9 | 996 | 993.1 | 990.2 | 987.6 | – | – | –
x2 = 0.6777 | – | – | – | – | – | – | – | 25.01 | 19.75 | 15.78
x2 = 0.7012 | 1006.6 | 1003.8 | 1000.9 | 998 | 995.2 | 992.3 | 989.8 | – | – | –
x2 = 0.7611 | – | – | – | – | – | – | – | 16.1 | 12.71 | 10.16
x2 = 0.7745 | 1007.1 | 1004.6 | 1001.9 | 999.1 | 996.4 | 993.7 | 991.2 | – | – | –
x2 = 0.8051 | 1007 | 1004.6 | 1002.1 | 999.5 | 996.7 | 994.1 | 991.6 | – | – | –
x2 = 0.8474 | – | – | – | – | – | – | – | 8.205 | 6.627 | 5.439
x2 = 0.8998 | 1005.3 | 1003.2 | 1000.9 | 998.6 | 996.3 | 993.9 | 992 | – | – | –
x2 = 0.9205 | – | – | – | – | – | – | – | 3.733 | 3.103 | 2.615
